In one assay the test system is human PD-L1 promoter. Briefly: Inhibitory effect of luciferase expression under control of PD-L1 promoter (A549/PD-L1luc luciferase assay, corrected by total protein). In kind it is cell-based. The settings on record: A549/PD-L1luc cells, 48±4 hours, RLU corrected by total protein amount, read-out: IC50 (50% inhibition value of luciferase expression). An excerpt:
A reporter vector, pPD-L1luc obtained by the insertion of a human PD-L1 promoter sequence (−2097 to 51) into the multiple cloning site of pGL-3 vector basic (Promega) expresses luciferase under the control of PD-L1 promoter when transfected into animal cells. The pPD-L1luc was transfected into a human non-small cell lung cancer-derived cell line A549 together with pPUR (Clontech) that expresses a puromycin resistance gene (puromycin-N-acetyl-transferase gene), and then cells expressing luciferase which could grow in a puromycin-supplemented medium were selected. The selected cells were named “A549/PD-L1luc cells” and used for luciferase assay as described below.
A test compound was added into a culture liquid containing A549/PD-L1luc cells to observe the influence of the test compound on the amount of luciferase expressed in the cells. Here, it can be considered that when the test compound has a cell cytotoxicity or cell growth inhibitory effect, the total expression level of luciferase is recued due to a reduction in the number of living cells that depends on the concentration of the test compound, and thus the inhibitory effect of luciferase expression under the control of PD-L1 promoter of the test compound cannot be properly evaluated.
A549/PD-L1luc cells were suspended in DMEM containing 10% fetal calf serum (FCS) and 1% penicillin/streptomycin (P/S) (hereinafter, referred to as “DMEM medium”) at 3×10^4 cells/mL to obtain a cell suspension, and the cell suspension was dispensed into each well of a 96-well plate in an amount of 100 μL. In order to perform the assay in triplicate, 3 wells were prepared for control group, and 3 wells were prepared for test compound-treated groups at each concentration. After the dispensation, the 96-well plate was incubated in a CO2 incubator (at 37° C. and 5% CO2) for 24±4 hours.
Each compound of Examples 1 to 6 and Comparative Example 1 was dissolved in dimethylsulfoxide (DMSO) to obtain 50 mmol/L of a compound solution, and the compound solution was stored at −80° C. The compound solution was diluted with DMSO in 2-fold dilution series (usually, in the range of 0.04 mmol/L to 10 mmol/L) to prepare test compound solutions whose concentration varied by two fold for luciferase assay.
Each solution of only DMSO (control) and the diluted test compound (sample) was dispensed into each well containing the cell suspension in an amount of 0.5 μL (200-fold dilution). The solution in each well was mixed with a vortex mixer, and then the 96-well plate was incubated in a CO2 incubator (at 37° C. and 5% CO2) for 48±4 hours. Luciferase Assay Substrate (hereinafter, referred to as “LAS”) supplied in Luciferase Assay Systems (Promega: Cat #E1500) was dissolved in Luciferase Assay Buffer (LAB) to prepare a luciferase reagent. 5× Cell Culture Lysis Reagent (hereinafter, referred to as “CCLR”) was diluted by 5 times with water to prepare 1×CCLR.
After the incubation for 48±4 hours, the medium in each well was completely removed, and 1×CCLR was dispensed into each well in an amount of 50 μL. The plate was allowed to stand at room temperature for 30 minutes, and then 1×CCLR in each well was used as an assay sample for luciferase and total protein amount. The luciferase reagent (100 μL) was placed in a tube for chemiluminescence measurement assay, and the assay sample (20 μL) was added into the tube and mixed with the luciferase reagent to measure chemiluminescence (Relative Luminescence Intensity: RLU) using GloMax 20/20 (Promega).
The above-mentioned assay sample (10 μL) was diluted by 10 times with water (90 μL). Each calibration curve sample was prepared by diluting the BSA solution with water as described in Table 1.
BCA reagent A and BCA reagent B (50:1) supplied in a kit for protein assay were mixed to prepare Working Reagent. Each of the calibration curve samples (Vials I to VI) and the 10-fold diluted assay samples was dispensed into each well of a 96-well plate in an amount of 25 μL, respectively. […]

The next assay deals with PD-L1. Description: Inhibitory effect of PD-L1 expression by cell staining with anti-PD-L1 antibody in IFN-γ-treated THP-1 cells (flow cytometry). As to conditions: Homo sapiens, IFN-γ 25 ng/mL, 24±2 hours, subMFI anti-CD274-PC7, read-out: IC50 (50% PD-L1 expression inhibition concentration). The assay is classed as cell-based. How it is done:
The inhibitory effects of each compound of Examples 1 to 6 on the PD-L1 expression were evaluated according to the following procedures.
(1) Acute monocytic leukemia cell-derived THP-1 cells were suspended in RPMI medium containing 10% FCS and 1% P/S (hereinafter, referred to as “RPMI medium”) at 5×10^5 cells/mL to obtain a cell suspension, and the cell suspension was dispensed into each well of a 6 well-plate in an amount of 3 mL. In order to activate the THP-1 cells and express PD-L1 in the cells, IFN-γ (PEPROTECH, Cat. No. 300-02-100UG, >2e+7 U/mg) was added into each well at a concentration of 25 ng/mL (>500 U/mL). 50 mmol/L of the test compound solution was diluted with the medium (usually, in the range of 0.025 mmol/L to 1 mmol/L), and the diluted solution was added into each well in an amount of 60 μL. The plate was incubated in a CO2 incubator (at 37° C. and 5% CO2) for 24±2 hours. In the control group, only DMSO was added in place of the test compound. (2) A part of the prepared cell culture liquid was collected and the number of cells therein was counted using a cell counter (BIORAD TC-20). The cell culture liquid was centrifuged at 300×g for 5 minutes and the supernatant of the cell culture liquid was removed. The cells were suspended in calcium and magnesium free phosphate buffered saline (PBS−) containing 1% bovine serum albumin (BSA) at a cell concentration of 1 to 2×10^7 cells/mL to prepare a cell suspension. (3) Each cell suspension prepared in the above step (2) were added into a 5 mL tube in an amount of 25 μL. 2 μL of 2% normal mouse serum/PBS− was added into tubes, and the tubes were gently pipetted. The tubes were then allowed to stand at room temperature for 15 minutes. (4) Anti-CD274-PC7 antibody (BECKMAN COULTER, Cat. No. A78884) or mouse IgG1-PC7 antibody (BECKMAN COULTER, 737662) as control was added in each tube in an amount of 10 μL, and the tubes were gently stirred. The tubes were then allowed to stand in the dark on an ice bath for 30 minutes. (5) Foxp3/Transcription Factor Fix/Perm Concentrate (4×) (Cat. No. TNB-1020-L050) (A solution) supplied in FOXP3/Transcription Factor Staining kit (TONBO biosciences) was diluted in Foxp3/Transcription Factor Fix/Perm Diluent (1×) (Cat. No. TNB-1022-L160) (A dilution solution) to prepare a 1×A solution. (6) The 1×A solution was added into each tube in an amount of 1 mL, and the tubes were gently pipetted and stirred. The tubes were then allowed to stand in the dark at room temperature for 30 minutes and centrifuged at 300×g for 5 minutes, and then the supernatants therein were removed. (7) 2 mL of 1% BSA/PBS− was added into each tube and the tubes were gently stirred and centrifuged at 300×g for 5 minutes, and then the supernatants therein were removed. (8) The cells therein were suspended in 0.5 mL of 1% BSA/PBS- and measured with a flow cytometer (Sony: Cell Sorter SH800) within 2 hours. The results were analyzed with a software, FlowJo (Tree Star Inc.). The mean peak fluorescence intensity (MFI) of PD-L1 and mean peak fluorescence intensity of IgG1 were calculated from histograms of the measured fluorescence intensity and number of cells, and the mean fluorescence intensity of IgG1 was subtracted from that of PD-L1 to calculate the subMFI. The experiments were performed in n=2.
The subMFI values of the control cells calculated by the FlowJo analysis and the cells cultured with the addition of the test compounds at each concentration (test cells) were input into an Excel file, and the percentages of the subMFI values of the test cells at each concentration to the average subMFI value of control cells were calculated. The regression line was determined from the percentages of the subMFI values of the test cells at each concentration by the method of least squares to calculate the 50% PD-L1 expression inhibition concentration (IC50 value) of each compound.
A general note: In flow cytometry, cells or beads pass a laser one at a time.

Like-named read-outs stand apart in the source and are kept apart here.

Consider `O=C(Nc1ccc(Oc2ccc(C(F)(F)F)cc2)cc1)C1CCCN(C(=O)c2ccc(O)cc2)C1` (centres unmarked) [Example 1, 1-(4-Hydroxybenzoyl)-N-(4-(4-(trifluoromethyl)phenoxy)phenyl)piperidine-3-carboxamide], for which the IC50 was 1300 nM in the assay on human PD-L1 promoter (Homo sapiens) and 1900 nM with PD-L1.

On to `O=C(Nc1ccc(Oc2ccc(S(F)(F)(F)(F)F)cc2)cc1)C1CCCN(C(=O)c2ccc(O)cc2)C1` (centres unmarked) [Example 4], for which the IC50 in the assay with human PD-L1 promoter (Homo sapiens) and in the assay with PD-L1 was 1200 nM each time.

For the compound “N-(3-(4-Chlorophenoxy)phenyl)-1-(4-hydroxyphenylcarbonyl) piperidine-3-carboxamide [Comparative Example 1, reference compound]”, on human PD-L1 promoter, the IC50 worked out at 14100 nM.

For the origin of these results see patent US11591297B2, “Compound having PD-L1 expression-suppressing action” (TOHOKU UNIVERSITY, priority 2019, dated 2023).
